Source: patent US7332522B2, “Liver function protecting or ameliorating agent” (Kyowa Hakko Kogyo Co., Ltd., priority 2001, dated 2008)
Read-outs that look alike come from different tables or passages of the source.

Key:
mast cells = conditions: at 100 μM; induced by compound 48/80 or calcium ionophore A23187; cited from earlier work
[1] = test system: rat skin passive anaphylaxis; conditions: oral administration, cited from earlier work
[2] = iron rhodanate method; cited from earlier work
[3] = test system: Galactosamine-induced Rat Hepatopathy; assay: Suppression of galactosamine-induced rat hepatopathy, GPT level in serum; assay type: in vivo, Male Wistar white rats; conditions: 15 days, serum 22 h after galactosamine 350 mg/kg i.p., relative to Comparative Example 1 feed = 100%, average ± standard error
Experimental: Male Wistar white rats (150±20 g, purchased from Japan SLC) were kept for at least 3 days under a fixed condition (temperature: 24±2° C., humidity: 60±5%, light and dark interval: 12 hours) for adaptation, and then fed respectively with the feeds produced in Examples 4-8 and the feed produced in Comparative Example 1 for 15 days. On the 14th day, 350 mg/kg of galactosamine (dissolved in physiological saline at a concentration of 35 mg/ml, and adjusted to pH 7.1) was intraperitoneally administered to each rat. Twenty-two hours after the administration of galactosamine, each of the rats was subjected to laparotomy under anesthesia with Nembutal and blood was collected.
Using thus obtained blood samples, blood GPT activity was measured as an indication of a liver function in the following manner. The collected blood was coagulated and separated by centrifugation to obtain a serum. The GPT level in the serum was measured using Fuji Drychem System 3500 (manufactured by Fuji Photo Film Co., Ltd.) with thus obtained serum. The GPT activity of each test group was calculated as the relative value (%) from the value obtained for each Example based on the value obtained for the feed in Comparative Example 1 expressed as 100%. The value is expressed in terms of average value±standard error and the statistical test of significance was carried out by Student's T-test.

rat liver microsome = conditions: cited from earlier work
[4] = 200 mg/kg; cited from earlier work
leukocyte = conditions: in vitro; cited from earlier work
[5] = test system: rat gastric ulcer induced by ethanol hydrochloride; conditions: 75 mg/kg, oral administration; cited from earlier work
hyaluronidase = conditions: cited from earlier work
[6] = test system: Staphylococcus epidemidis; conditions: at 1000 ppm; cited from earlier work
Staphylococcus aureus = conditions: at 1000 ppm; cited from earlier work

## O=C1O[C@H]([C@@H](O)c2ccc(O)cc2)c2cccc(O)c21 [hydramacrophyllol A, reference compound]
Mast cells
  suppression of release of histamine from mast cells: not suppressed

## O=C1O[C@@H]([C@@H](O)c2ccc(O)cc2)c2cccc(O)c21 [hydramacrophyllol B, reference compound]
Mast cells
  suppression of release of histamine from mast cells: not suppressed

## O=C1OC(c2ccc(O)cc2)Cc2cccc(OC3OC(CO)C(O)C(O)C3O)c21 (stereo not shown) [hydrangenol 8-O-glucoside]
Mast cells
  suppression of release of histamine from mast cells: not suppressed
[1]; 300 and 500 mg/kg
  suppression of rat skin passive anaphylaxis: suppress

## O=C1OC(c2ccc(O)cc2)Cc2cccc(O)c21 (stereo not shown) [hydrangenol]
[2]
  suppressive activity on linoleic acid oxidation: weak suppressive activity
[3]; feed of Example 7, hydrangenol 0.324% in feed
  GPT activity (%): 64.6 ± 116.5%
[3]; feed of Example 8, hydrangenol 0.108% in feed
  GPT activity (%): 27.8 ± 45.4%
Mast cells
  suppression of release of histamine from mast cells: not suppressed
Rat liver microsome
  suppressive activity on NADPH dependent lipid peroxidation: weak suppressive activity
[4]
  cholagogic activity: do not exhibit this activity
leukocyte
  concentration active in differentiation-inducing activity on leukocyte: 300 µM
[5]
  suppression of rat gastric ulcer induced by ethanol hydrochloride: do not suppress
[1]; 500 mg/kg
  suppression of rat skin passive anaphylaxis: suppress
hyaluronidase
  hyaluronidase inhibitory activity: hyaluronidase inhibitory activity

## COc1ccc(C2Cc3cccc(OC4OC(CO)C(O)C(O)C4O)c3C(=O)O2)cc1O (stereo not shown) [phyllodulcin 8-O-glucoside]
Mast cells
  suppression of release of histamine from mast cells: not suppressed
[1]; 300 and 500 mg/kg
  suppression of rat skin passive anaphylaxis: suppress

## COc1ccc([C@H]2Cc3cccc(O)c3C(=O)O2)cc1O [phyllodulcin]
[2]
  suppressive activity on linoleic acid oxidation: more potent suppressive activity than α-tocopherol or BHA
[3]; feed of Example 4, phyllodulcin 0.366% in feed
  GPT activity (%): 11.8 ± 18.0%
[3]; feed of Example 5, phyllodulcin 0.122% in feed
  GPT activity (%): 54.7 ± 32.2%
[3]; feed of Example 6, phyllodulcin 0.037% in feed
  GPT activity (%): 52.7 ± 59.9%
Mast cells
  suppression of release of histamine from mast cells: not suppressed
[6]
  proliferation suppressive activity: proliferation suppressive activity
Rat liver microsome
  suppressive activity on NADPH dependent lipid peroxidation: suppressive activity at a similar level to α-tocopherol
Staphylococcus aureus
  proliferation suppressive activity: proliferation suppressive activity
[4]
  cholagogic activity: do not exhibit this activity
leukocyte
  concentration active in differentiation-inducing activity on leukocyte: 300 µM
[5]
  suppression of rat gastric ulcer induced by ethanol hydrochloride: do not suppress
[1]; 300 and 500 mg/kg
  suppression of rat skin passive anaphylaxis: does not suppress

## O=c1oc(-c2ccc(O)c(O)c2)cc2cccc(O)c12 [thunberginol A]
leukocyte
  concentration active in differentiation-inducing activity on leukocyte: 100 µM
[1]; 300 and 500 mg/kg
  suppression of rat skin passive anaphylaxis: suppress

## O=C1O/C(=C\c2ccc(O)c(O)c2)c2cccc(O)c21 [thunberginol F, reference compound]
[1]; 300 and 500 mg/kg
  suppression of rat skin passive anaphylaxis: suppress
